Experimental data taken from US11773086B2, “Fungal modulators” (TRUSTEES OF BOSTON UNIVERSITY, priority 2020, dated 2023).

What follows are molecules tested on FLC-resistant Candida auris (assay: Checkerboard (dose-response matrix) with fluconazole, FICI). Settings: fractional inhibitory concentration index for enhancement of FLC activity in FLC-resistant Candida auris; <0.5 strong synergy, 2 = no synergy.
Assay type: cell-based
Method: Generally, the synergy is measured by determining the fractional inhibitory concentration (FIC) value of the combination. […] FIC values for both agents in a particular square/well are calculated in this way followed by determination of the FIC index (sum of the FICs of each agent in the particular square/well).
(§1) Compound potency was assessed alone by dose response assays or in combination with another compound by dose-response matrixes in 96-well plates, or 384-well, flat-bottom, microtiter plates (Corning) as previously described. Plates were incubated at 30° C. for the indicated time period. Growth was quantified by measuring OD600 and corrected for medium background. All strains were assessed in biological duplicate experiments with technical duplicates. Growth was normalized to untreated controls and plotted as a heat map using Java TreeView 1.1.6r4. For dose-response matrixes fractional inhibitory concentration index at 90% growth inhibition (FICI90) was calculated as previously described. The fluconazole Etest susceptibility assay was performed as previously described. Briefly, 200 μL of 5×10^6 cells/mL were plated on YPD agar (1%) plates with either with 50 μM azoffluxin or containing DMSO.

SMILES | FICI
CC(C)(C)C[C@@H](O)COc1cc2c(cc1C1(c3cc4c(cc3OC[C@H](O)CC(C)(C)C)OCO4)C(=O)Nc3ccc(Br)cc31)OCO2 [CMLD013652, 5-bromo-3,3-bis(6-(((2R)-2-hydroxy-4,4-dimethylpentyl)oxy)-2H-1,3-benzodioxol-5-yl)-2,3-dihydro-1H-indol-2-one] | 0.175
CC(C)C[C@@H](O)COc1cc2c(cc1C1(c3cc4c(cc3OC[C@H](O)CC(C)C)OCCO4)C(=O)Nc3c(F)cccc31)OCCO2 [CMLD013654, 7-fluoro-3,3-bis(7-(((2R)-2-hydroxy-4-methylpentyl)oxy)-2,3-dihydro-1,4-benzodioxin-6-yl)-2,3-dihydro-1H-indol-2-one] | 0.255
CCC[C@@H](O)COc1cc2c(cc1C1(c3cc4c(cc3OCC)OCO4)C(=O)Nc3c(F)cccc31)OCO2 (stereo partly drawn) [CMLD013655, 3-(6-ethoxy-2H-1,3-benzodioxol-5-yl)-7-fluoro-3-(6-(((2R)-2-hydroxypentyl)oxy)-2H-1,3-benzodioxol-5-yl)-2,3-dihydro-1H-indol-2-one] | 0.113
O=C1Nc2ccccc2C1(c1ccc(O)cc1)c1ccc(O)cc1 [Oxyphenisatin, oxyphenisatin, reference compound] | 2
C=C(C)C[C@@H](O)COc1cc2c(cc1C1(c3cc4c(cc3OCC)OCO4)C(=O)Nc3cc(F)ccc31)OCO2 (stereo partly drawn) [RT-162S-015, 3-(6-ethoxybenzo[d][1,3]dioxol-5-yl)-6-fluoro-3-(6-(((R)-2-hydroxy-4-methylpent-4-en-1-yl)oxy)benzo[d][1,3]dioxol-5-yl)indolin-2-one] | 0.133

These molecules were tested on C. auris (assay: microbe, parasite or virus in culture). Settings: Candidozyma auris; Etest; read-out: fluconazole MIC in absence of azoffluxin.
Assay type: cell-based, Candida auris
Method: FIGS. 2A-2E illustrate the above-described screening of the BU-CMD which identified azoffluxin as a fluconazole (FLC) potentiator against C. auris. […] Growth, as determined by optical density at 600 nm (OD600), is plotted in the presence of each CMD compound alone on the y-axis and in combination with FLC on the x-axis. Dotted lines represent 7-median absolute deviations from the median for each condition. […] FIG. 2B depicts the synergistic interactions. […] Growth was measured by the OD600 and normalized to the no drug control (see color bar). The fractional inhibitory concentration index (FICI) was calculated to determine the chemical interaction, with a value below 0.5 indicating synergy. […] FIG. 2D depicts FLC Etest strips in the presence and absence of 50 μM azoffluxin. A total of 1×10^6 C. auris cells were added to YPD agar plates, the E-test strip was added, and plates were incubated at 30° C. for 24 hours prior to imaging. FIG. 2. […] Dose-response assay where a two-fold dilution of azoffluxin was titered starting from 50 μM. Indicated titrations have a background concentration of FLC of 32 μg/mL, 4 μg/mL, 0.25 μg/mL, and 0.5 μg/mL for C. auris Ci6684 (Erg11Y132F), C. albicans (SN95), C. glabrata (BG2) or S. cerevisiae (BY4741), respectively. […] Dose response assays were incubated for 48 hours at 30° C. in RPMI. Growth in each well was plotted by the relative optical density to the respective no drug control (See color bar in FIG. 2B).
as §1, with “Growth was normalized to untreated controls and plotted as a heat map using Java TreeView 1.1.6r4.” left out, “The fluconazole Etest susceptibility assay was performed as previously described. Briefly, 200 μL of 5×10^6 cells/mL were plated on YPD agar (1%) plates with either with 50 μM azoffluxin or containing DMSO.” left out

SMILES | MIC [µg/mL]
OC(Cn1cncn1)(Cn1cncn1)c1ccc(F)cc1F [fluconazole, reference compound] | > 256
